Reference: the NIST ThermoML archive (doi:10.1021/je050020m)
± gives the expanded uncertainty stated by the source.

Assay: xn = mol fraction of the nth substance listed
Details: Liquid, Vibrating tube method

CCCCCCCCCC [decane] + O=C=O
Details | mass density [kg/m3]
323.05 K, 14026 kPa, x2 = 0.0551 | 721.01 ± 0.59
323.05 K, 15008 kPa, x2 = 0.0551 | 721.76 ± 0.6
323.05 K, 16035 kPa, x2 = 0.0551 | 722.62 ± 0.6
323.05 K, 17008 kPa, x2 = 0.0551 | 723.4 ± 0.61
323.05 K, 18019 kPa, x2 = 0.0551 | 724.22 ± 0.61
323.05 K, 18994 kPa, x2 = 0.0551 | 724.89 ± 0.61
323.05 K, 20009 kPa, x2 = 0.0551 | 725.73 ± 0.62
323.05 K, 21010 kPa, x2 = 0.0551 | 726.47 ± 0.62
323.05 K, 21987 kPa, x2 = 0.0551 | 727.22 ± 0.63
323.05 K, 23060 kPa, x2 = 0.0551 | 728.04 ± 0.63
323.05 K, 23980 kPa, x2 = 0.0551 | 728.74 ± 0.64
323.05 K, 25055 kPa, x2 = 0.0551 | 729.61 ± 0.64
323.06 K, 5014 kPa, x2 = 0.2369 | 719.6 ± 0.52
323.06 K, 6022 kPa, x2 = 0.2369 | 720.66 ± 0.52
323.06 K, 7021 kPa, x2 = 0.2369 | 721.73 ± 0.53
323.06 K, 7029 kPa, x2 = 0.4536 | 732.05 ± 0.49
323.06 K, 8017 kPa, x2 = 0.4536 | 733.42 ± 0.49
323.06 K, 8020 kPa, x2 = 0.2369 | 722.8 ± 0.53
323.06 K, 9010 kPa, x2 = 0.2369 | 723.79 ± 0.54
323.06 K, 9018 kPa, x2 = 0.4536 | 734.79 ± 0.56
323.06 K, 10024 kPa, x2 = 0.4536 | 736.13 ± 0.52
323.06 K, 10030 kPa, x2 = 0.2369 | 724.84 ± 0.54
323.06 K, 11018 kPa, x2 = 0.2369 | 725.81 ± 0.54
323.06 K, 11019 kPa, x2 = 0.4536 | 737.41 ± 0.51
323.06 K, 12021 kPa, x2 = 0.2369 | 726.78 ± 0.55
323.06 K, 12025 kPa, x2 = 0.4536 | 738.69 ± 0.51
323.06 K, 13001 kPa, x2 = 0.2369 | 727.75 ± 0.55
323.06 K, 13003 kPa, x2 = 0.4536 | 739.89 ± 0.51
323.06 K, 14021 kPa, x2 = 0.2369 | 728.7 ± 0.56
323.06 K, 14027 kPa, x2 = 0.4536 | 741.16 ± 0.52
323.06 K, 15001 kPa, x2 = 0.4536 | 742.33 ± 0.52
323.06 K, 15014 kPa, x2 = 0.2369 | 729.63 ± 0.56
323.06 K, 16010 kPa, x2 = 0.2369 | 730.54 ± 0.56
323.06 K, 16024 kPa, x2 = 0.4536 | 743.53 ± 0.53
323.06 K, 17006 kPa, x2 = 0.2369 | 731.46 ± 0.57
323.06 K, 17010 kPa, x2 = 0.4536 | 744.68 ± 0.53
323.06 K, 18028 kPa, x2 = 0.2369 | 732.36 ± 0.57
323.06 K, 18030 kPa, x2 = 0.4536 | 745.84 ± 0.53
323.06 K, 19000 kPa, x2 = 0.4536 | 746.93 ± 0.54
323.06 K, 19016 kPa, x2 = 0.2369 | 733.24 ± 0.58
323.06 K, 20015 kPa, x2 = 0.2369 | 734.11 ± 0.58
323.06 K, 20028 kPa, x2 = 0.4536 | 748.09 ± 0.54
323.06 K, 21001 kPa, x2 = 0.4536 | 749.17 ± 0.55
323.06 K, 21027 kPa, x2 = 0.2369 | 735 ± 0.59
323.06 K, 22020 kPa, x2 = 0.4536 | 750.24 ± 0.55
323.06 K, 22023 kPa, x2 = 0.2369 | 735.85 ± 0.59
323.06 K, 23012 kPa, x2 = 0.4536 | 751.33 ± 0.56
323.06 K, 23022 kPa, x2 = 0.2369 | 736.71 ± 0.6
323.06 K, 24006 kPa, x2 = 0.2369 | 737.58 ± 0.6
323.06 K, 24021 kPa, x2 = 0.4536 | 752.42 ± 0.56
323.06 K, 25004 kPa, x2 = 0.2369 | 738.42 ± 0.61
323.06 K, 25029 kPa, x2 = 0.4536 | 753.51 ± 0.57
332.91 K, 12008 kPa, x2 = 0.8114 | 740.55 ± 1.9
332.91 K, 13051 kPa, x2 = 0.8114 | 744.82 ± 0.5
332.91 K, 14018 kPa, x2 = 0.8114 | 748.57 ± 0.5
332.91 K, 15048 kPa, x2 = 0.8114 | 752.37 ± 0.5
332.91 K, 15985 kPa, x2 = 0.8114 | 755.64 ± 0.5
332.91 K, 17015 kPa, x2 = 0.8114 | 759.04 ± 0.5
332.91 K, 18008 kPa, x2 = 0.8114 | 762.27 ± 0.5
332.91 K, 19002 kPa, x2 = 0.8114 | 765.33 ± 0.5
332.91 K, 20017 kPa, x2 = 0.8114 | 768.38 ± 0.5
332.91 K, 21018 kPa, x2 = 0.8114 | 771.25 ± 0.51
332.91 K, 22044 kPa, x2 = 0.8114 | 774.13 ± 0.51
332.91 K, 23040 kPa, x2 = 0.8114 | 776.83 ± 0.51
332.91 K, 24008 kPa, x2 = 0.8114 | 779.4 ± 0.51
332.91 K, 25047 kPa, x2 = 0.8114 | 782.09 ± 0.52
332.94 K, 1997 kPa, x2 = 0.0551 | 702.61 ± 0.55
332.94 K, 3024 kPa, x2 = 0.0551 | 703.63 ± 0.55
332.94 K, 4011 kPa, x2 = 0.0551 | 704.59 ± 0.55
332.94 K, 5026 kPa, x2 = 0.2369 | 711.09 ± 0.52
332.94 K, 5040 kPa, x2 = 0.0551 | 705.62 ± 0.56
332.94 K, 6015 kPa, x2 = 0.2369 | 712.23 ± 0.52
332.94 K, 6062 kPa, x2 = 0.0551 | 706.62 ± 0.56
332.94 K, 7009 kPa, x2 = 0.0551 | 707.53 ± 0.56
332.94 K, 7015 kPa, x2 = 0.4536 | 721.74 ± 0.49
332.94 K, 7019 kPa, x2 = 0.2369 | 713.38 ± 0.53
332.94 K, 7978 kPa, x2 = 0.0551 | 708.43 ± 0.57
332.94 K, 8020 kPa, x2 = 0.2369 | 714.47 ± 0.53
332.94 K, 8025 kPa, x2 = 0.4536 | 723.26 ± 0.5
332.94 K, 9016 kPa, x2 = 0.4536 | 724.72 ± 0.5
332.94 K, 9017 kPa, x2 = 0.2369 | 715.56 ± 0.54
332.94 K, 9037 kPa, x2 = 0.0551 | 709.44 ± 0.57
332.94 K, 9992 kPa, x2 = 0.0551 | 710.31 ± 0.58
332.94 K, 10015 kPa, x2 = 0.2369 | 716.65 ± 0.54
332.94 K, 10023 kPa, x2 = 0.4536 | 726.15 ± 0.6
332.94 K, 11009 kPa, x2 = 0.2369 | 717.69 ± 0.54
332.94 K, 11014 kPa, x2 = 0.4536 | 727.55 ± 0.51
332.94 K, 11032 kPa, x2 = 0.0551 | 711.27 ± 0.58
332.94 K, 12001 kPa, x2 = 0.4536 | 728.9 ± 0.51
332.94 K, 12005 kPa, x2 = 0.9663 | 511.9 ± 1.4
332.94 K, 12013 kPa, x2 = 0.0551 | 712.13 ± 0.58
332.94 K, 12015 kPa, x2 = 0.2369 | 718.74 ± 0.55
332.94 K, 12511 kPa, x2 = 0.9663 | 544.43 ± 1.4
332.94 K, 13003 kPa, x2 = 0.9663 | 571.24 ± 1.1
332.94 K, 13015 kPa, x2 = 0.2369 | 719.76 ± 0.55
332.94 K, 13027 kPa, x2 = 0.0551 | 713.03 ± 0.59
332.94 K, 13045 kPa, x2 = 0.4536 | 730.28 ± 0.52
332.94 K, 13998 kPa, x2 = 0.4536 | 731.55 ± 0.52
332.94 K, 14011 kPa, x2 = 0.2369 | 720.77 ± 0.56
332.94 K, 14015 kPa, x2 = 0.9663 | 614.37 ± 0.98
332.94 K, 14018 kPa, x2 = 0.0551 | 713.89 ± 0.59
332.94 K, 15000 kPa, x2 = 0.4536 | 732.81 ± 0.52
332.94 K, 15003 kPa, x2 = 0.2369 | 721.75 ± 0.56
332.94 K, 15021 kPa, x2 = 0.0551 | 714.75 ± 0.6
332.94 K, 15026 kPa, x2 = 0.9663 | 648.23 ± 0.86
332.94 K, 15997 kPa, x2 = 0.0551 | 715.59 ± 0.6
332.94 K, 16019 kPa, x2 = 0.2369 | 722.73 ± 0.57
332.94 K, 16032 kPa, x2 = 0.4536 | 734.14 ± 0.53
332.94 K, 16035 kPa, x2 = 0.9663 | 674.85 ± 0.77
332.94 K, 16998 kPa, x2 = 0.0551 | 716.44 ± 0.61
332.94 K, 17015 kPa, x2 = 0.2369 | 723.7 ± 0.57
332.94 K, 17018 kPa, x2 = 0.4536 | 735.36 ± 0.53
332.94 K, 17018 kPa, x2 = 0.9663 | 695.62 ± 0.71
332.94 K, 18016 kPa, x2 = 0.9663 | 713.48 ± 0.67
332.94 K, 18021 kPa, x2 = 0.4536 | 736.57 ± 0.54
332.94 K, 18026 kPa, x2 = 0.2369 | 724.66 ± 0.58
332.94 K, 18031 kPa, x2 = 0.0551 | 717.29 ± 0.61
332.94 K, 19002 kPa, x2 = 0.9663 | 728.62 ± 0.64
332.94 K, 19004 kPa, x2 = 0.0551 | 718.07 ± 0.62
332.94 K, 19012 kPa, x2 = 0.4536 | 737.79 ± 0.54
332.94 K, 19022 kPa, x2 = 0.2369 | 725.6 ± 0.58
332.94 K, 20002 kPa, x2 = 0.0551 | 718.88 ± 0.62
332.94 K, 20002 kPa, x2 = 0.4536 | 738.93 ± 0.55
332.94 K, 20012 kPa, x2 = 0.2369 | 726.51 ± 0.58
332.94 K, 20033 kPa, x2 = 0.9663 | 742.59 ± 0.62
332.94 K, 21014 kPa, x2 = 0.0551 | 719.68 ± 0.63
332.94 K, 21022 kPa, x2 = 0.9663 | 754.63 ± 0.61
332.94 K, 21024 kPa, x2 = 0.2369 | 727.44 ± 0.59
332.94 K, 21028 kPa, x2 = 0.4536 | 740.14 ± 0.55
332.94 K, 22021 kPa, x2 = 0.2369 | 728.35 ± 0.59
332.94 K, 22021 kPa, x2 = 0.4536 | 741.29 ± 0.56
332.94 K, 22027 kPa, x2 = 0.0551 | 720.5 ± 0.63
332.94 K, 22029 kPa, x2 = 0.9663 | 765.58 ± 0.59
332.94 K, 23009 kPa, x2 = 0.4536 | 742.44 ± 0.56
332.94 K, 23010 kPa, x2 = 0.2369 | 729.26 ± 0.6
